Target: T1, androgen receptor in MDA-MB453-MMTV clone 54-19 cells (Homo sapiens, UniProt P10275)
T1 sequence (P10275 1-920 Q868H): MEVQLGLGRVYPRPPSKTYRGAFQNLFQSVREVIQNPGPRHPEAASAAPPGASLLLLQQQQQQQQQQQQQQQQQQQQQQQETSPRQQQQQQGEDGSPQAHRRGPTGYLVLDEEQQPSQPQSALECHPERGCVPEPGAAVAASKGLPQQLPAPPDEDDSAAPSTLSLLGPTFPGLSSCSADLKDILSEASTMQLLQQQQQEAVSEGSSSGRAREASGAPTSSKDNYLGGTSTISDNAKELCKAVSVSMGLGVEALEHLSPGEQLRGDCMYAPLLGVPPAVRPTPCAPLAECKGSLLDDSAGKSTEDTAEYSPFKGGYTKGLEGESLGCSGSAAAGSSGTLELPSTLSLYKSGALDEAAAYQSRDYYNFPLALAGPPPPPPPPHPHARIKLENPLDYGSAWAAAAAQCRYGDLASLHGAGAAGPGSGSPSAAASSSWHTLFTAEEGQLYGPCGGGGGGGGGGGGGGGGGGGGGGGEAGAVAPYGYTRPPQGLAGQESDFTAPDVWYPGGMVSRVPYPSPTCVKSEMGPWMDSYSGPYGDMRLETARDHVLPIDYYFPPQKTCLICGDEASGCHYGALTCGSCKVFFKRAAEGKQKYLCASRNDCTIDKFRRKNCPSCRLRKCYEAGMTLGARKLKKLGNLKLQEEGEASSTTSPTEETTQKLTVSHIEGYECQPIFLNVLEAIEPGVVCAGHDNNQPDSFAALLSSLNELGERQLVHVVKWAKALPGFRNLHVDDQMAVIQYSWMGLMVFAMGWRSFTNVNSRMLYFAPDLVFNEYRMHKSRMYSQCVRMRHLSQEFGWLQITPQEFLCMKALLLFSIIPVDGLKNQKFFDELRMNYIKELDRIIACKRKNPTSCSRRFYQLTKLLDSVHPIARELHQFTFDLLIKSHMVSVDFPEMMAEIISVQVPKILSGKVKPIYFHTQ
Test: AR Antagonist Cell Assay (MMTV-luciferase reporter, DHT-induced)
Assay type: cell-based
Details: MDA-MB453-MMTV clone 54-19, 100 pM DHT, 17 hr; mean of multiple tests
In short: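 MDA-MB453 cells stably carrying an ARE-containing MMTV-luciferase reporter, in phenol red-free medium with 1% charcoal-treated serum, preincubated 30 min with compound (0.32-1000 nM), then stimulated with 100 pM DHT for 17 h at 37 °C. Luminescence read; percent inhibition of DHT fold induction.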

Structure (SMILES) | IC50 [nM]
CC(C)CC(Oc1ccc(C#N)c(C(F)(F)F)c1)c1cccc(O)c1 (single isomer, unassigned; (+)) [Example 21, (+)4-[1-(3-Hydroxyphenyl)-3-methylbutoxy]-2-(trifluoromethyl)benzonitrile] | 79
CCC(Oc1ccc(C#N)c(C(F)(F)F)c1)c1ccccn1 (stereo not drawn) [Example 79, 4-(1-Pyridin^−2-yl-propoxy)-2-trifluoromethyl-benzonitrile] | 27.1
CCCC(Oc1ccc(C#N)c(C(F)(F)F)c1)c1cccc(O)c1 (racemic) [Example 14, 4-[1-(3-Hydroxyphenyl)butoxy]-2-(trifluoromethyl)benzonitrile] | 36
N#Cc1ccc(OCc2cccc(O)c2)cc1C(F)(F)F [Example 6, 4-[(3-Hydroxybenzyl)oxy]-2-(trifluoromethyl)benzonitrile] | 6
CC(Oc1ccc(C#N)c(C(F)(F)F)c1)c1cccc(O)c1 (single isomer, unassigned; (-)) [Example 9, (−)-4-[1-(3-Hydroxyphenyl)ethoxy]-2-(trifluoromethyl)benzonitrile] | 13
CC(C)CC(Oc1ccc(C#N)c(C(F)(F)F)c1)c1cccnc1 (stereo not drawn) [Example 88, 4-(3-Methyl-1-pyridin-3-yl-butoxy)-2-trifluoromethyl-benzonitrile] | 50
CCCC(Oc1ccc(C#N)c(C(F)(F)F)c1)c1cccc(O)c1 (single isomer, unassigned; (+)) [Example 15, (+)4-[1-(3-Hydroxyphenyl)butoxy]-2-(trifluoromethyl)benzonitrile] | 102
C=CCC(Oc1ccc(C#N)c(C(F)(F)F)c1)c1cccc(O)c1 (single isomer, unassigned; (-)) [Example 19, (−)4-{[1-(3-Hydroxyphenyl)but-3-enyl]oxy}-2-(trifluoromethyl)benzonitrile] | 34
COc1cccc(C(C)Oc2ccc(C#N)c(C(F)(F)F)c2)n1 (stereo not drawn) [Example 80, 4-[1-(6-Methoxy-pyridin-2-yl)-ethoxy]-2-trifluoromethyl-benzonitrile] | 152
CC(Oc1ccc(C#N)c(C(F)(F)F)c1)c1cncc(O)c1 (single isomer, unassigned; (+)) [Example 74, (+)4-[1-(5-Hydroxypyridin-3-yl)ethoxy]-2-(trifluoromethyl)benzonitrile] | 111
CC(Oc1ccc(C#N)c(C(F)(F)F)c1)c1ccccc1 (racemic) [Example 1, 4-(1-Phenyl-ethoxy)-2-trifluoromethyl-benzonitrile] | 90
Cc1ccc(C(CC(C)C)Oc2ccc(C#N)c(C(F)(F)F)c2)cn1 (stereo not drawn) [Example 89, 4-[3-Methyl-1-(6-methyl-pyridin-3-yl)-butoxy]-2-trifluoromethyl-benzonitrile] | 56
